The values below come from paper PMC4972714 (Bioorganic & medicinal chemistry, 2016).

In assay [1] the test system is HIV-1 NL4-3 in U87-CD4/CXCR4 cells. As to the kind of experiment: Viral replication assay, p24 read-out. Conditions: 10 µM, infection over several days, NL4-3 in U87-CD4/CXCR4 cells (Fig. 1A). In kind it is cell-based.
For assay [2], the system named is HIV-1 RRE IIB RNA. The assay is described as follows: Dot blot assay, binding to RRE IIB RNA. Conditions: dot blot Kd relative to BPBA3.
Assay [3] deals with HIV-1 RRE IIB RNA. The settings on record: native Rev protein with RRE; ref [26], [58]; cited from earlier work.

Turning to `Nc1ccn([C@@H]2CS[C@H](CO)O2)c(=O)n1` [3TC, 2′,3′-dideoxy-3′-thiacytidine], the “HIV-1 replication screening, p24 expression” value (“HIV-1 replication screening” for short) in assay [1] was “completely abolished p24 expression”.

Turning to `Cc1cn([C@H]2C[C@H](N=[N+]=[N-])[C@@H](CO)O2)c(=O)[nH]c1=O` [AZT, azidothymidine], in assay [1], the “HIV-1 replication screening” value is recorded as “completely abolished p24 expression”.

As to Elvitegravir, the “HIV-1 replication screening” value in assay [1] is given as “completely abolished p24 expression”.

Take FBPAYFBPA*NKSY [LBPBA3A]: the “loss in binding affinity towards RRE IIB versus BPBA3” value with HIV-1 RRE IIB RNA [2] turned out to be 2 fold.

As for FBPAYFBPAFBPAYFBPA*NKSY [LBPBA3B], in the assay with HIV-1 RRE IIB RNA [2], the “loss in binding affinity towards RRE IIB versus BPBA3” value was found to be 3 fold.

Consider Raltegravir, for which, in assay [1], the “HIV-1 replication screening” value is recorded as “completely abolished p24 expression”.

On to “Rev protein: native HIV-1 Rev protein that binds RRE”, for which the “dissociation constant with RRE” value at HIV-1 RRE IIB RNA [3] is “low nanomolar range”.
